Calls of active or inactive are those of the source.
How the values were obtained:
[1] = target: Photoreceptor-specific nuclear receptor (Homo sapiens, UniProt Q9Y5X4); type: functional, cell-based;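 also: CHO-S cells with Gal4-NCOR and VP16-NR2E3 two-hybrid luciferase reporter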
Coagulation factor XII = target: T1, Coagulation factor XII (Homo sapiens, UniProt P00748); type: functional;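 also: activated factor XIIa alpha cleaving a fluorogenic AMC peptide substrate; inhibitor potency from loss of enzyme activity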
T1 sequence (P00748 whole entry): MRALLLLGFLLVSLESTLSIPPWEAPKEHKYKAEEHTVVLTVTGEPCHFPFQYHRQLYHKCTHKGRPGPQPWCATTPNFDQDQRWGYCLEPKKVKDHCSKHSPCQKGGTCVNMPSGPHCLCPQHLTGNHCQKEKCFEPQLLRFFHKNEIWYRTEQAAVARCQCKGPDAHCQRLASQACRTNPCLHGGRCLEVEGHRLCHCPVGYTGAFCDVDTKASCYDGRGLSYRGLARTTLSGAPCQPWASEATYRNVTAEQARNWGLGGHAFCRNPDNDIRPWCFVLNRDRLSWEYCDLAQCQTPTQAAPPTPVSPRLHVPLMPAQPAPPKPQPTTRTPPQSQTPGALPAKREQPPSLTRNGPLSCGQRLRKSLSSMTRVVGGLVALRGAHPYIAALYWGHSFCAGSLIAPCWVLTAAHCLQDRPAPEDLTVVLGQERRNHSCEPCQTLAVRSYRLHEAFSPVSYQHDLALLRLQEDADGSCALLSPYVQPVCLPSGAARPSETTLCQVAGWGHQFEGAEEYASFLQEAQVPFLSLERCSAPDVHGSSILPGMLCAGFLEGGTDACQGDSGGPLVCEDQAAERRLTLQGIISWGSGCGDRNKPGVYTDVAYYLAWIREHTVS

[2] = target: T2, Adenosylmethionine-8-amino-7-oxononanoate aminotransferase (Mycobacterium tuberculosis, UniProt P9WQ81); assay: Mycobacterium tuberculosis BioA enzyme inhibitor Measured in Biochemical System Using Plate Reader - 2163-02_Inhibitor_Dose_CherryPick_Activity.; type: functional, Mycobacterium tuberculosis UT205
T2 sequence (P9WQ81 whole entry): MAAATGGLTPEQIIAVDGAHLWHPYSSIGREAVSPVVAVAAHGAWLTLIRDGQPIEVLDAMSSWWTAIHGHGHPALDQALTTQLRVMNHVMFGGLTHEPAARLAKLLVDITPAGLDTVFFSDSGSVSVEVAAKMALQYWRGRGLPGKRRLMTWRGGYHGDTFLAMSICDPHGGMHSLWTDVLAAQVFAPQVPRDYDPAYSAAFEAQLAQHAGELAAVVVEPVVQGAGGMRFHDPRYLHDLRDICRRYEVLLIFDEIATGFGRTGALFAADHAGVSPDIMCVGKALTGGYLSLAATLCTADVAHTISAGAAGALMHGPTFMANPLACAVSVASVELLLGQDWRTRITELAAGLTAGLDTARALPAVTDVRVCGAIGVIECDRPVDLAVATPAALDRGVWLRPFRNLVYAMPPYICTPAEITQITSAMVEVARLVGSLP

[3] = target: Dual specificity tyrosine-phosphorylation-regulated kinase 1A (Rattus norvegicus, UniProt Q63470); type: biochemical, Homo sapiens
[4] = target: T3, Methionyl-tRNA synthetase, putative (Trypanosoma brucei brucei, UniProt Q38C91); type: functional, Trypanosoma brucei brucei strain 927/4 GUTat10.1
T3 sequence (Q38C91 whole entry): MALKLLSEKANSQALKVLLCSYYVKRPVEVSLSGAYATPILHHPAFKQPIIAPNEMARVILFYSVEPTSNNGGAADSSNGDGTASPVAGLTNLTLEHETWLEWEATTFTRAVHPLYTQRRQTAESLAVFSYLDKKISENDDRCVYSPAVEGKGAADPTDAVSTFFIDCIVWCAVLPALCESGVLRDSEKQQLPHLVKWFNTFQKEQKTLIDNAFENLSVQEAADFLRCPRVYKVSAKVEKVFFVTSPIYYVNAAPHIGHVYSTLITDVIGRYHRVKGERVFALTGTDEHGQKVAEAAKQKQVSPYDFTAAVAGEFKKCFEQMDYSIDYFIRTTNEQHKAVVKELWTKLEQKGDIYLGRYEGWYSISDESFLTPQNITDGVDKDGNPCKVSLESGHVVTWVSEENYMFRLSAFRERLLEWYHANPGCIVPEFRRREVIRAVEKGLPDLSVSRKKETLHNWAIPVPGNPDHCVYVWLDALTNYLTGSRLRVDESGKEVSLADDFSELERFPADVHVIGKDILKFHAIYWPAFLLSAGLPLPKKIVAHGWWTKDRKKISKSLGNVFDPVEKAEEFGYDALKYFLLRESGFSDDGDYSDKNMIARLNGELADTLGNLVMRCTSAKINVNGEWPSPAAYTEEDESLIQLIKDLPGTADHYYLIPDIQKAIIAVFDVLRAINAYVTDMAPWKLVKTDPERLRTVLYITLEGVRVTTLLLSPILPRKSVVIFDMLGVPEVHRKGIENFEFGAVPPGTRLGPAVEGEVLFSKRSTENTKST

[5] = target: T3, Methionyl-tRNA synthetase, putative; type: functional, Trypanosoma brucei brucei strain 927/4 GUTat10.1; remark: listed apart in the source
[6] = target: T4, Heat shock factor protein 1 (Mus musculus, UniProt P38532); assay: enhancement of HSF1-driven luciferase signal – cell-based, NIH3T3, luminescence, dose retest, confirmation (AID 435004); type: functional;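 also: stress induced by proteasome inhibitor MG132 added 30 min after compound; luciferase reporter driven by HSF1 response element in NIH3T3 cells; actives raise luminescence as potentiators of the MG132 stress response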
T4 sequence (P38532 whole entry): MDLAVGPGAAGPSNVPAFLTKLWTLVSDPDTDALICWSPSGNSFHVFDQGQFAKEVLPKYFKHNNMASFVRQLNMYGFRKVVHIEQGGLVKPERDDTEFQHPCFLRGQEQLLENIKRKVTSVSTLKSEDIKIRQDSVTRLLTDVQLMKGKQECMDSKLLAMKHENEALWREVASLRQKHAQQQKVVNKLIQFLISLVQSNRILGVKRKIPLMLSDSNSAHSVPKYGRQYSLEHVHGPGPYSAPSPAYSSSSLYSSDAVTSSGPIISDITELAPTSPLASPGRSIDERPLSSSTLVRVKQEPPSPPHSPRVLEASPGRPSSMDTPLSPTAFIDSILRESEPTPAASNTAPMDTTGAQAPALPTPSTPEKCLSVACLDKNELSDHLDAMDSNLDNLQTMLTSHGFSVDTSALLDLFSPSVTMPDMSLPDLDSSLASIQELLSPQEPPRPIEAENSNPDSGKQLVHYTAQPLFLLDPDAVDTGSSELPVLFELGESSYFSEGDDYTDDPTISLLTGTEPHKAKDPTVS

[7] = Counterscreen for inhibitors of Trypanosoma brucei methionyl tRNA synthetase (MetRS): Luminescence-based cell-based high throughput dose response assay to identify compounds that are cytotoxic to Jurkat human T lymphocyte cells.; type: functional
[8] = target: Peroxisome proliferator-activated receptor gamma/Nuclear receptor coactivator 1 (Homo sapiens, UniProt P37231); assay: TR-FRET dose response biochemical High Throughput Screening assay for agonists of the steroid receptor coactivator 1 (SRC-1) recruitment by the peroxisome proliferator-activated receptor gamma (PPAR gamma): non-selective agonists. [Related pubchem assays (depositor defined):AID1300, AID1808, AID504735, AID631]; type: protein assay
Fatty acid synthase [9] = target: T5, Fatty acid synthase (Homo sapiens, UniProt P49327); assay: inhibition of human FAS-TE enzyme activity – biochemical, kinetic fluorescence intensity, dose response (AID 624326); type: functional;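 also: rate of fluorescence rise from hydrolysis of a fluorogenic O-methyl fluorescein ester substrate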
[10] = target: Peroxisome proliferator-activated receptor gamma/Nuclear receptor coactivator 2 (Homo sapiens, UniProt P37231); assay: (§1) TR-FRET dose response biochemical High Throughput Screening assay for agonists of the steroid receptor coactivator 2 (SRC-2) recruitment by the peroxisome proliferator-activated receptor gamma (PPAR gamma): non-selective agonists. [Related pubchem assays: 1297, 1032 ]; type: functional
[11] = target: T6, Short transient receptor potential channel 4 (Mus musculus, UniProt Q9QUQ5); assay: block of DAMGO-driven TRPC4 calcium entry – cell-based, HEK293 TRPC4/mu-opioid, Fluo-4 calcium, dose response (AID 434942); type: functional;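 also: potency of inhibitors blocking the TRPC4 calcium response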
T6 sequence (Q9QUQ5 whole entry): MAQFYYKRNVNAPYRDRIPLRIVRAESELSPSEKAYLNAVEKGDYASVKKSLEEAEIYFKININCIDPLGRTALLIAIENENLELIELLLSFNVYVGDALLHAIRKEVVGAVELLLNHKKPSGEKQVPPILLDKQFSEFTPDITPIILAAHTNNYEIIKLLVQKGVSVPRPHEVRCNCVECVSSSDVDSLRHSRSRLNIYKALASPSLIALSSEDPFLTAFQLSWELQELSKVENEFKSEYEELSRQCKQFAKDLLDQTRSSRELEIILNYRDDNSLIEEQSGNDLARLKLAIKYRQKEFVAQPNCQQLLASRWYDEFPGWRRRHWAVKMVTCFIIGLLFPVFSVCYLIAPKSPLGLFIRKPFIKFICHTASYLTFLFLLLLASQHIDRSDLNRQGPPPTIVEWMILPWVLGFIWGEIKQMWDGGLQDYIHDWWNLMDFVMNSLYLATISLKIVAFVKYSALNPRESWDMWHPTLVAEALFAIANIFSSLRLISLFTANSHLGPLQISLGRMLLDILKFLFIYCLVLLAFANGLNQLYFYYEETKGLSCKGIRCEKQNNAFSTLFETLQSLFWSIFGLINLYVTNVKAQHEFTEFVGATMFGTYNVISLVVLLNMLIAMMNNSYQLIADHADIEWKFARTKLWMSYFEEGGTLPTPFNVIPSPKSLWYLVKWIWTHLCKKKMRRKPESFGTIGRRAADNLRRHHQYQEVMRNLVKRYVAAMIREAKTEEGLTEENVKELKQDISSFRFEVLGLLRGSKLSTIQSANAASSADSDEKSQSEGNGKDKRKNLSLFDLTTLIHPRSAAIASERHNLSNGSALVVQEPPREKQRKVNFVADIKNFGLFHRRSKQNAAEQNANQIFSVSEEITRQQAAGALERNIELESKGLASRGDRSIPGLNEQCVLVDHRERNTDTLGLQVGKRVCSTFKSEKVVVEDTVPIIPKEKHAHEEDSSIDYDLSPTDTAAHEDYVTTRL

Major prion protein = Major prion protein (Homo sapiens, UniProt P04156); type: functional, cell-based
SUMO-activating enzyme [12] = target: T7, SUMO-activating enzyme (Homo sapiens, UniProt Q9UBT2); assay: blockers of SAE1/SAE2–UBC9 SUMO transfer – biochemical, HTRF, uHTS, primary screen (AID 2006); type: protein-complex assay
SUMO-activating enzyme [13] = target: T7, SUMO-activating enzyme; assay: blockers of UBC9-mediated SUMO conjugation – biochemical, AlphaScreen, SUMOylation inhibitor project, confirmation (AID 2018); type: functional
Fatty acid synthase [14] = target: T5, Fatty acid synthase; assay: inhibition of human FAS-TE enzyme activity – biochemical, endpoint fluorescence intensity, uHTS hits, dose response (AID 624327); type: functional;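 also: fluorescence from hydrolysis of an O-methyl fluorescein acyl ester substrate by the enzyme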
[15] = target: Peroxisome proliferator-activated receptor gamma/Nuclear receptor coactivator 3 (Homo sapiens, UniProt P37231); assay: as §1, with “3 (SRC-3)” for “2 (SRC-2)”, “1301 (Confirmation screen.), 1048 (Primary screen.)]” for “1297, 1032 ]”; type: functional
[16] = target: Glucose-6-phosphate 1-dehydrogenase (Homo sapiens, UniProt P11413); assay: inhibition of Homo sapiens G6PD, dose series – biochemical, fluorescence, selectivity assay for P. falciparum G6PD inhibitor project, dose response (AID 504792); type: functional
HEK293 [17] = assay: NOD2 signaling inhibitors in MDP-stimulated cells, cell-based, uHTS, luminescence (AID 2001); type: functional; details: Homo sapiens
HEK293 [18] = assay: cells; type: functional, cell-based; details: Homo sapiens
HEK293 [19] = assay: inhibition of NOD1-driven NF-kB reporter – cell-based, luminescence, uHTS, primary screen (AID 1578); type: functional; details: Homo sapiens
HEK293 [20] = assay: cells; type: functional, cell-based; details: Homo sapiens; remark: listed apart in the source

CCC1(OC(=O)CN(C)C)C(=O)OCc2c1cc1n(c2=O)Cc2cc3c(N)cccc3nc2-1 (stereo not given)
IC50 [1]: 2.92 µM (active)

CN(c1ccccc1)S(=O)(=O)c1ccc(NC(=S)NC(=O)c2ccccc2)cc1
IC50 (Coagulation factor XII): > 50 µM (inactive)

COc1ccc(S(=O)(=O)N2CCCCC2)cc1N=C(S)Nc1cccc(Cl)c1C
IC50 [1]: 0.962 µM (active)

CCN1[C@H](C(=O)NCc2ccccc2)[C@@H](CO)[C@@H]2Cn3c(ccc(-c4cccnc4)c3=O)[C@@H]21
AC50 [2]: 13.2 µM (active)

CC(=O)Oc1ccc2c(c1)C(=O)c1ccccc1C2=O
AC50 [3]: 36.2 µM (active)

CCOC(=O)c1cccc(NC(=O)Cn2c(CC(=O)NC)nc3ccccc32)c1
IC50 [4]: 2.05 µM (active)
IC50 [5]: 6.01 µM (active)
EC50 [6]: > 260 µM (inactive)
IC50 [7]: 83.3 µM (inactive)

O=C(NNc1c(Cl)cc(Cl)cc1Cl)c1nnc(O)c2ccccc12
IC50 (Coagulation factor XII): > 50 µM (inactive)

O=C(C[C@H]1C[C@@H]2c3cc(NC(=O)c4cccnc4)ccc3O[C@@H]2[C@@H](CO)O1)NCC(F)(F)F
AC50 [2]: 16.8 µM (active)

O=C1N=C(NS(=O)(=O)Cc2ccccc2)S/C1=C/c1ccc2c(c1)OCO2
AC50 [3]: 2.56 µM (active)

O=C(c1ccccc1F)N1CC[C@@H]2[C@H]1c1cc(Br)ccc1N[C@@H]2CO
AC50 [2]: 1.53 µM (active)

Cc1cccc(NC(=O)CSCc2c(C)noc2C)c1C
IC50 (Coagulation factor XII): > 50 µM (inactive)

N#Cc1c(-c2cccs2)nc(SCc2ccc(Cl)cc2)[nH]c1=O
EC50 [8]: > 79.4 µM (inactive)
IC50 (Fatty acid synthase [9]): 5.61 µM (active)
EC50 [10]: > 79.4 µM (not active)
EC50 [11]: 4.22 µM (active)
IC50 (Major prion protein): 1.05 µM (active)
IC50 (SUMO-activating enzyme [12]): 18 µM (active)
IC50 (SUMO-activating enzyme [13]): 9.93 µM (active)
IC50 (Fatty acid synthase [14]): 6.44 µM (active)
EC50 [15]: > 79.4 µM (not active)

CC(C)C(NC(=O)CC12CC3CC(CC(C3)C1)C2)C(=O)O (stereo not given)
IC50 (Coagulation factor XII): > 50 µM (inactive)

CCN(CC)CCn1c2ccccc2c(=O)c2c(O)ccc(O)c21
AC50 [3]: 3.16 µM (active)
IC50 [16]: 64.6 µM (inactive)

CCC(NC(=O)c1ccc2nc(Cc3ccc(OC)cc3)oc2c1)c1ccncc1 (stereo not given)
IC50 (HEK293 [17]): 12.5 µM (inactive)
IC50 (HEK293 [18]): 16.5 µM (active)
EC50 (HEK293 [19]): 4.58 µM (active)
IC50 (HEK293 [20]): 8.15 µM (active)

N#Cc1c(O)nc(SCc2ccc(Cl)cc2)nc1-c1cccs1
IC50 (HEK293 [17]): 6.99 µM (inactive)
IC50 (HEK293 [18]): 18.9 µM (active)
IC50 (cells): > 138 µM (inactive)
EC50 (HEK293 [19]): 4.58 µM (active)
IC50 (HEK293 [20]): 11.5 µM (active)

Reference: ChEMBL document CHEMBL1201862, “PubChem BioAssay data set” (2004)
